Patent US7550456B2, “Substituted aryl cycloalkanoyl derivatives and methods of their use” (Wyeth, priority 2003, dated 2009)
Where a name gives a salt, the structure may show the parent alone.

biological target: T1, human hNET (Homo sapiens, UniProt P23975); experiment: Norepinephrine (NE) uptake assay in MDCK-Net6 cells; format: cell-based; settings: 1 μM test compound, [3H]NE uptake, read-out: % Inhibition @ 1 μM (hNET)
T1 construct: expressed in transfected cells; host or cells: MDCK-Net6 (MDCK cells, stably transfected)
T1 sequence (P23975 whole entry): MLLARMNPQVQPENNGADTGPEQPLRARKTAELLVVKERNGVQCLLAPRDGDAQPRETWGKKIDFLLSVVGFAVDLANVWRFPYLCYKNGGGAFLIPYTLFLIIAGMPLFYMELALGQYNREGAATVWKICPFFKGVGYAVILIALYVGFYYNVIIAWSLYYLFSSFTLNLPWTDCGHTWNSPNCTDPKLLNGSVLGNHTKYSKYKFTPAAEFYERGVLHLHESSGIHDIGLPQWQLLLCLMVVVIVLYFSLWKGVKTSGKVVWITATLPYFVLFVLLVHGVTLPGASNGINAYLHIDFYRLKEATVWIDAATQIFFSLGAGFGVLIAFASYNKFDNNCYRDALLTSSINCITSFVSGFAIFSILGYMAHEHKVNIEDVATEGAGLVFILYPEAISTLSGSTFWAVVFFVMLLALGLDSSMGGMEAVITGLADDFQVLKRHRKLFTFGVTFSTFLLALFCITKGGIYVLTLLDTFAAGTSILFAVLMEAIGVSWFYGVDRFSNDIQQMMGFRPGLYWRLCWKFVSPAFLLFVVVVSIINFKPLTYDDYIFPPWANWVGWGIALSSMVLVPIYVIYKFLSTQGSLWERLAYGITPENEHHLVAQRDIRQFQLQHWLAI
How it was run: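 Radiolabelled NE uptake was counted by scintillation after NaOH lysis, with 1 µM desipramine defining non-specific uptake. EC50 came from a logistic dose-response fit.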

| inhibition at 1 µM [%] | SMILES |
| --- | --- |
| 59 | CN1CCN(CC(c2cc(Br)c(OCc3ccccc3)c(Br)c2)C2(O)CCCCC2)CC1 (centres unmarked) [Example 393, 1-[1-[4-(benzyloxy)-3,5-dibromophenyl]-2-(4-methylpiperazin-1-yl)ethyl]cyclohexanol dihydrochloride] |
| 35 | C[C@@H]1CCC(O)(C(CN2CCNCC2)c2cccc(OC(F)(F)F)c2)C1 (stereo partly drawn) [Example 394, (3R)-3-methyl-1-{2-piperazin-1-yl-1-[3-(trifluoromethoxy)phenyl]ethyl}cyclopentanol dihydrochloride] |
| 92 | C[C@@H]1CCC(O)(C(CN2CCN(C)CC2)c2cccc(OC(F)(F)F)c2)C1 (stereo partly drawn) [Example 395, (3R)-3-methyl-1-{2-(4-methylpiperazin-1-yl)-1-[3-(trifluoromethoxy)phenyl]ethyl}cyclopentanol dihydrochloride] |
| 33 | CC1(C)CCCC1(O)C(CN1CCNCC1)c1cccc(OC(F)(F)F)c1 (centres unmarked) [Example 396, 2,2-dimethyl-1-{2-piperazin-1-yl-1-[3-(trifluoromethoxy)phenyl]ethyl}cyclopentanol dihydrochloride] |
| 17 | CN1CCN(CC(c2ccc(Oc3cccc4ccccc34)cc2)C2(O)CCCCC2)CC1 (centres unmarked) [Example 399, 1-{2-(4-methylpiperazin-1-yl)-1-[4-(1-naphthyloxy)phenyl]ethyl}cyclohexanol dihydrochloride] |
| 38 | Oc1ccc(C(CN2CCNCC2)C2(O)CCCCC2)cc1OC(F)(F)F (centres unmarked) [Example 400, 4-[1-(1-hydroxycyclohexyl)-2-piperazin-1-ylethyl]-2-(trifluoromethoxy)phenol dihydrochloride] |
| 25 | CN1CCN(CC(c2ccc(O)c(OC(F)(F)F)c2)C2(O)CCCCC2)CC1 (centres unmarked) [Example 401, 4-[1-(1-hydroxycyclohexyl)-2-(4-methylpiperazin-1-yl)ethyl]-2-(trifluoromethoxy)phenol dihydrochloride] |
| 42 | COc1ccc(C(CN2CCNCC2)C2(O)CCCCC2)cc1OC(F)(F)F (centres unmarked) [Example 402, 1-{1-[4-methoxy-3-(trifluoromethoxy)phenyl]-2-piperazin-1-ylethyl}cyclohexanol dihydrochloride] |
| 42 | CCOc1ccc(C(CN2CCNCC2)C2(O)CCCCC2)cc1OC(F)(F)F (centres unmarked) [Example 404, 1-{1-[4-ethoxy-3-(trifluoromethoxy)phenyl]-2-piperazin-1-ylethyl}cyclohexanol dihydrochloride] |
| 27 | CCOc1ccc(C(CN2CCN(C)CC2)C2(O)CCCCC2)cc1OC(F)(F)F (centres unmarked) [Example 405, 1-[1-[4-ethoxy-3-(trifluoromethoxy)phenyl]-2-(4-methylpiperazin-1-yl)ethyl]cyclohexanol dihydrochloride] |
| 62 | OC1(C(CN2CCNCC2)c2ccc(CCc3ccccc3)cc2)CCCCC1 (centres unmarked) [Example 409, 1-{1-[4-(2-phenylethyl)phenyl]-2-piperazin-1-ylethyl}cyclohexanol dihydrochloride] |
| 51 | CN1CCN(CC(c2ccc(CCc3ccccc3)cc2)C2(O)CCCCC2)CC1 (centres unmarked) [Example 410, 1-{2-(4-methylpiperazin-1-yl)-1-[4-(2-phenylethyl)phenyl]ethyl}cyclohexanol dihydrochloride] |
| 76 | OC1(C(CN2CCNCC2)c2ccc(OCc3ccccc3)c(F)c2)CCCCC1 (centres unmarked) [Example 413, 1-{1-[4-(benzyloxy)-3-fluorophenyl]-2-piperazin-1-ylethyl}cyclohexanol dihydrochloride] |
| 96 | CN1CCN(CC(c2ccc(OCc3ccccc3)c(F)c2)C2(O)CCCCC2)CC1 (centres unmarked) [Example 414, 1-{1-[4-(benzyloxy)-3-fluorophenyl]-2-(4-methylpiperazin-1-yl)ethyl}cyclohexanol dihydrochloride] |
| 84 | OC1(C(CN2CCNCC2)c2ccc(OCc3ccc(C(F)(F)F)cc3)c(F)c2)CCCCC1 (centres unmarked) [Example 415, 1-[1-(3-fluoro-4-{[4-(trifluoromethyl)benzyl]oxy}phenyl)-2-piperazin-1-ylethyl]cyclohexanol dihydrochloride] |
| 91 | CN1CCN(CC(c2ccc(OCc3ccc(C(F)(F)F)cc3)c(F)c2)C2(O)CCCCC2)CC1 (centres unmarked) [Example 416, 1-[1-(3-fluoro-4-{[4-(trifluoromethyl)benzyl]oxy}phenyl)-2-(4-methylpiperazin-1-yl)ethyl]cyclohexanol dihydrochloride] |
| 78 | Cc1ccc(COc2ccc(C(CN3CCNCC3)C3(O)CCCCC3)cc2F)cc1 (centres unmarked) [Example 417, 1-(1-{3-fluoro-4-[(4-methylbenzyl)oxy]phenyl}-2-piperazin-1-ylethyl)cyclohexanol dihydrochloride] |
| 71 | Cc1ccc(COc2ccc(C(CN3CCN(C)CC3)C3(O)CCCCC3)cc2F)cc1 (centres unmarked) [Example 418, 1-[1-(3-fluoro-4-{[4-(methyl)benzyl]oxy}phenyl)-2-(4-methylpiperazin-1-yl)ethyl]cyclohexanol dihydrochloride] |
| 46 | OC1(C(CN2CCNCC2)c2ccc(OCc3ccc(C(F)(F)F)cc3)c(Cl)c2)CCCCC1 (centres unmarked) [Example 419, 1-[1-(3-chloro-4-{[4-(trifluoromethyl)benzyl]oxy}phenyl)-2-piperazin-1-ylethyl]cyclohexanol dihydrochloride] |
| 68 | CN1CCN(CC(c2ccc(OCc3ccc(C(F)(F)F)cc3)c(Cl)c2)C2(O)CCCCC2)CC1 (centres unmarked) [Example 420, 1-[1-(3-chloro-4-{[4-(trifluoromethyl)benzyl]oxy}phenyl)-2-(4-methylpiperazin-1-yl)ethyl]cyclohexanol dihydrochloride] |
| 59 | OC1(C(CN2CCNCC2)c2ccc(OCc3ccccc3C(F)(F)F)c(Cl)c2)CCCCC1 (centres unmarked) [Example 421, 1-[1-(3-chloro-4-{[2-(trifluoromethyl)benzyl]oxy}phenyl)-2-piperazin-1-ylethyl]cyclohexanol dihydrochloride] |
| 20 | CN1CCN(CC(c2ccc(OCc3ccccc3C(F)(F)F)c(Cl)c2)C2(O)CCCCC2)CC1 (centres unmarked) [Example 422, 1-[1-(3-chloro-4-{[2-(trifluoromethyl)benzyl]oxy}phenyl)-2-(4-methylpiperazin-1-yl)ethyl]cyclohexanol dihydrochloride] |
| 79 | OC1(C(CN2CCNCC2)c2ccc(OCc3cccc(C(F)(F)F)c3)c(Cl)c2)CCCCC1 (centres unmarked) [Example 423, 1-[1-(3-chloro-4-{[3-(trifluoromethyl)benzyl]oxy}phenyl)-2-piperazin-1-ylethyl]cyclohexanol dihydrochloride] |
| 75 | CN1CCN(CC(c2ccc(OCc3cccc(C(F)(F)F)c3)c(Cl)c2)C2(O)CCCCC2)CC1 (centres unmarked) [Example 424, 1-[1-(3-chloro-4-{[3-(trifluoromethyl)benzyl]oxy}phenyl)-2-(4-methylpiperazin-1-yl)ethyl]cyclohexanol dihydrochloride] |
| 80 | OC1(C(CN2CCNCC2)c2ccc(OCc3ccc(Br)cc3F)c(Cl)c2)CCCCC1 (centres unmarked) [Example 425, 1-(1-{4-[(4-bromo-2-fluorobenzyl)oxy]-3-chlorophenyl}-2-piperazin-1-ylethyl)cyclohexanol dihydrochloride] |
| 84 | CN1CCN(CC(c2ccc(OCc3ccc(Br)cc3F)c(Cl)c2)C2(O)CCCCC2)CC1 (centres unmarked) [Example 426, 1-[1-{4-[(4-bromo-2-fluorobenzyl)oxy]-3-chlorophenyl}-2-(4-methylpiperazin-1-yl)ethyl]cyclohexanol dihydrochloride] |
| 33 | OC1(C(CN2CCNCC2)c2ccc(OCc3ccc4ccccc4c3)c(Cl)c2)CCCCC1 (centres unmarked) [Example 427, 1-{1-[3-chloro-4-(2-naphthylmethoxy)phenyl]-2-piperazin-1-ylethyl}cyclohexanol dihydrochloride] |
| 64 | OC1(C(CN2CCNCC2)c2ccc(OCc3ccc4ccccc4c3)cc2)CCCCC1 (centres unmarked) [Example 432, 1-{1-[4-(2-naphthylmethoxy)phenyl]-2-piperazin-1-ylethyl}cyclohexanol] |
| 49 | CN1CCN(CC(c2ccc(OCc3ccc4ccccc4c3)cc2)C2(O)CCCCC2)CC1 (centres unmarked) [Example 433, 1-{2-(4-methylpiperazin-1-yl)-1-[4-(2-naphthylmethoxy)phenyl]ethyl}cyclohexanol] |
| 34 | OC1(C(CN2CCNCC2)c2ccc(OCc3ccc(Br)cc3F)cc2)CCCCC1 (centres unmarked) [Example 434, 1-(1-{4-[(4-bromo-2-fluorobenzyl)oxy]phenyl}-2-piperazin-1-ylethyl)cyclohexanol] |

| SMILES | inhibition at 1 µM [%] |
| --- | --- |
| CC(C)COc1ccc(C(CN2CCNCC2)C2(O)CCCCC2)cc1OC(F)(F)F (centres unmarked) [Example 406, 1-{1-[4-isobutoxy-3-(trifluoromethoxy)phenyl]-2-piperazin-1-ylethyl}cyclohexanol dihydrochloride] | 22 |
| CC(C)COc1ccc(C(CN2CCN(C)CC2)C2(O)CCCCC2)cc1OC(F)(F)F (centres unmarked) [Example 407, 1-[1-[4-isobutoxy-3-(trifluoromethoxy)phenyl]-2-(4-methylpiperazin-1-yl)ethyl]cyclohexanol dihydrochloride] | 12 |

same assay, conditions: [3H]NE uptake, test range 1 to 10,000 nM

| EC50 [nM] | SMILES |
| --- | --- |
| 398 | CN1CCN(CC(c2ccc(OCc3ccccc3)c(OC(F)(F)F)c2)C2(O)CCCCC2)CC1 (centres unmarked) [Example 408, 1-[1-[4-(benzyloxy)-3-(trifluoromethoxy)phenyl]-2-(4-methylpiperazin-1-yl)ethyl]cyclohexanol dihydrochloride] |
| 483 | CN1CCN(C[C@H](c2ccc(OCc3ccccc3)cc2)C2(O)CCCCC2)CC1 [Example 411, 1-[(2S)-1-[4-(benzyloxy)phenyl]-2-(4-methylpiperazin-1-yl)ethyl]cyclohexanol dihydrochloride] |
| 138 | CN1CCN(C[C@@H](c2ccc(OCc3ccccc3)cc2)C2(O)CCCCC2)CC1 [Example 412, 1-[(2R)-1-[4-(benzyloxy)phenyl]-2-(4-methylpiperazin-1-yl)ethyl]cyclohexanol dihydrochloride] |
